Experimental findings from patent US6472526B1, “Imidazole derivatives having an inhibitory activity for farnesyl transferase and process for preparation thereof” (LG Chemical Ltd., priority 1997, dated 2002) are described below.

In assay [1] the target is T1, Ras farnesyl transferase (Homo sapiens, UniProt P49354+P49356).
T1 construct: made in house
In words: In vitro inhibitory activity for Ras farnesyl transferase, K-Ras substrate. It is filed as biochemical. To be noted: in vitro farnesyl transferase assay, K-Ras; read-out: K-Ras IC50.

Assay [2] has as its target T2, Ras farnesyl transferase (Rattus norvegicus, UniProt Q02293+Q04631).
T2 construct: endogenous in cells; host or cells: Rat2 fibroblasts transformed with H-Ras or with an H-Ras/K-Ras C-terminus fusion
In words: In vivo (cellular) inhibitory activity for Ras farnesyl transferase, Rat2 cell line transformed with fused protein of H-Ras substituted with polybasic lysine domain at C-terminus of K-Ras. It is filed as cell-based. The settings on record: Rat2 cell line transformed with H-Ras fused with polybasic lysine domain of K-Ras C-terminus; concentration inhibiting 50% of farnesyl bonding; read-out: K-Ras CIC50. How it is done: (§1) In the present experiment, Rat2 cell line which expresses C-Harvey-Ras protein having transforming activity and Rat2 cell line (Korean patent application No. 97-14409) which is transformed with fused protein of H-Ras substituted with polybasic lysine domain at C-terminus of K-Ras were used. The experiment was performed by the modified Declue's method (Declue. J. E. et al., Cancer Research, 1991, 51, 712). Hereinafter, the experimental method will be described in more detail.
(§2) 3×10^5 cells of transformed Rat2 fibroblast cell line were sprayed on 60 mm cell cultivation dish and cultivated for 48 hours in a cell incubator at 37° C. and after 50% or more of density was reached, it was treated with the test compounds. The compound according to the present invention dissolved in dimethylsulfoxide (DMSO) was used. 1% concentration of dimethylsulfoxide was used in both control and test groups. After 4 hours from the treatment with the compound, methionine labeled with 150 μCi of radioactive isotope [^35S] per 1 ml of medium was added and after cultivating for 20 hours, the cells were, washed with physiological saline water. The cells were lysed using 1 ml of cold cell lysis buffer solution (50 mM of Sodium HEPES buffer solution containing 5mM of magnesium chloride, 1 mM of DTT, 1% NP 40, 1 mM of EDTA, 1 mM of PMSF, 2 μM of leupeptin, 2 μM of pepstatin A and 2 μM of antipain) and the supernatant wherein the cells were lysed was obtained by high-velocity centrifugation of 12,000 g×5 minutes. The amount of radioisotope in the supernatant was measured and standardized to obtain a quantitative result in immunoprecipitation reaction and then, Y13-259, a monoclonal antibody specifically binding to Ras protein (Furth, M. E. et al., J. Virol, 1982, 43, 294) was added and reacted for 15 hours at 4° C. Protein A(combined with goat anti-murine immunoglobulin antibody)-agarose suspension was added to the solution and reacted for 1 hour at 4° C. and then, to remove the unspecific binding product, immunoprecipitates were washed with a buffer solution (50 mM Tris chloride buffer solution containing 50 mM of sodium chloride, 0.5% of sodium dioxycolate, 0.5% of NP 40 and 0.1% of SDS). The precipitates were added to a buffer solution for electrophoresis and boiled and then, electrophoresis was performed using 13.5% of SDS polyacrylamide gel. After electrophoresis, the gel was fixed and dried. Then, the gel was exposed to X-ray film, developed printed. From the result of the experiment, intensities of band of in combined with or without farnesyl of Ras protein were measured, the concentration of the test compound inhibiting 50% of farnesyl bonding was defined as […], an in vivo Ras farnesyl transferase inhibitory activity.

Assay [3] concerns the target T1, Ras farnesyl transferase. In words: In vitro inhibitory activity for Ras farnesyl transferase, H-Ras substrate. The class given is biochemical. The settings on record: recombinant farnesyl transferase 4.5 nM, Ras substrate protein 1.5 μM, tritium-farnesylpyrophosphate 0.15 μM, 30 minutes at 37° C.; read-out: H-Ras IC50. As to the method: In the present experiment, Ras farnesyl transferase produced by genetic recombination techniques according to the improved Pompliano's method (Pompliano et al., Biochemistry, 1992, 31, 3800) was used, and Ras substrate (Ras-CVLS) protein described in Korean Patent Appln. No. 97-14409 was used after it has been purified according to the known method (see, Chung et al., Biochimica et Biophysica Acta, 1992, 278, 1129).
The enzyme reaction was performed in 50 μl of 50 mM Sodium HEPES buffer solution containing 25 mM of potassium chloride, 25 mM of magnesium chloride, 10 mM of DTT and 50 μM of zinc chloride. 1.5 μM of Ras substrate protein, 0.15 μM of tritium-farnesylpyrophosphate and 4.5 nM of farnesyl transferase were used.
More specifically, in the initial step, farnesyl transferase was added to the above buffer solution, reaction was maintained for 30 minutes at 37° C. and then the reaction was stopped by adding 1 ml of ethanol solution containing 1M HCl. The formed precipitates were adsorbed to GF/B filter using Hopper harvestor(Hopper #FH 225V) for filter-binding, washed with ethanol, and then radioactivity of the dried filter was measured using LKB β counter. Enzyme titer was measured in the unsaturated state of substrate where the concentrations of Ras substrate protein and farnesyl transferase have quantitative relationship. The compound according to the present invention dissolved in dimethyl sulfoxide (DMSO) was added to the reaction solution in an amount of less than 5% of the total reaction solution, and then the enzyme inhibitory activity thereof was measured. The enzyme inhibitory activity was represented by percentage of the amount of farnesyl incorporated into the Ras substrate protein in the presence of the test compound to that in the absence of the test compound. IC50 of the test compound was defined as the concentration at which 50% of the enzyme activity was inhibited.

Assay [4] addresses T2, Ras farnesyl transferase. The assay can be described thus: In vivo (cellular) inhibitory activity for Ras farnesyl transferase, Rat2 cell line which expresses C-Harvey-Ras protein. The class given is cell-based. The settings on record: Rat2 cell line expressing C-Harvey-Ras; concentration inhibiting 50% of farnesyl bonding of Ras protein; read-out: H-Ras CIC50. How it is done:
as §1, §2

With `COC(=O)C(CCSC)NC(=O)c1cn(Cc2cncn2Cc2ccc(C#N)cc2)cc1-c1cccc2ccccc12` (stereo in doubt) [Compound 100, (S)-1-[1-(4-Cyanobenzyl)-1H-imidazol-5-yl]methyl-3-[N-(1-methoxycarbonyl-3-methylthio)propyl]carbamoyl-4-(naphthalen-1-yl)-1H-pyrrole], the IC50 on Ras farnesyl transferase [1] was 0.1 to 10 µM; on Ras farnesyl transferase [2], over 20 µM; at Ras farnesyl transferase [3], 1.8 µM; on Ras farnesyl transferase [4] it was over 1 µM.

With `O=C(c1cn(Cc2cncn2Cc2ccc3c(c2)OCO3)cc1-c1cccc2ccccc12)N1CCOCC1` [Compound 2, 1-[1-(3,4-Methylenedioxybenzyl)-1H-imidazol-5-ylmethyl]-3-(morpholin-4-yl)carbonyl-4-(naphthalen-1-yl)-1H-pyrrole], the IC50 on Ras farnesyl transferase [1] was 0.002 µM; on Ras farnesyl transferase [2], 10 to 50 µM; on Ras farnesyl transferase [3], 0.00085 µM; on Ras farnesyl transferase [4], 0.025 µM.

As to `CN1CCN(C(=O)c2cn(Cc3cncn3Cc3ccc4c(c3)OCO4)cc2-c2cccc3ccccc23)CC1` [Compound 3, 1-[1-(3,4-Methylenedioxybenzyl)-1H-imidazol-5-ylmethyl]-3-(4-methylpiperazin-1-yl)carbonyl-4-(naphthalen-1-yl)-1H-pyrrole], the IC50 is 0.0024 µM at Ras farnesyl transferase [1], 15 µM on Ras farnesyl transferase [2], 0.001 µM on Ras farnesyl transferase [3] and 0.025 µM at Ras farnesyl transferase [4].

Take `CN(C)CCN(C)C(=O)c1cn(Cc2cncn2Cc2ccc3c(c2)OCO3)cc1-c1cccc2ccccc12` [Compound 4, 3-{N-[2-(N,N-Dimethylamino)ethyl]-N-methyl}carbamoyl-1-[1-(3,4-methylendioxybenzyl)-1H-imidazol-5-ylmethyl]-4-(naphthalen-1-yl)-1H-pyrrole]: the IC50 at Ras farnesyl transferase [1] was 0.75 µM; on Ras farnesyl transferase [2] it was 10 to 100 µM; on Ras farnesyl transferase [3], 0.047 µM; on Ras farnesyl transferase [4] it was 0.1 to 1 µM.

As for `COCCN(C)C(=O)c1cn(Cc2cncn2Cc2cccc3ccccc23)cc1-c1cccc2ccccc12` [Compound 5], the IC50 is 0.0085 µM on Ras farnesyl transferase [1], 10 to 50 µM on Ras farnesyl transferase [2], 0.0037 µM at Ras farnesyl transferase [3] and 0.025 µM at Ras farnesyl transferase [4].

For the compound `O=C(c1cn(Cc2cncn2Cc2cccc3ccccc23)cc1-c1cccc2ccccc12)N1CCOCC1` [Compound 6], the IC50 on Ras farnesyl transferase [1] is 0.002 µM; on Ras farnesyl transferase [2], 10 to 50 µM; on Ras farnesyl transferase [3], 0.001 µM; at Ras farnesyl transferase [4], 0.025 µM.

On to `CN1CCN(C(=O)c2cn(Cc3cncn3Cc3cccc4ccccc34)cc2-c2cccc3ccccc23)CC1` [Compound 7, 3-(4-Methylpiperazin-1-yl)carbonyl-4-(naphthalen-1-yl)-1-[1-(naphthalen-1-ylmethyl)-1H-imidazol-5-ylmethyl]-1H-pyrrole], for which the IC50 was 0.0022 µM at Ras farnesyl transferase [1], 10 to 50 µM at Ras farnesyl transferase [2], 0.0006 µM on Ras farnesyl transferase [3] and 0.025 µM at Ras farnesyl transferase [4].

In the case of `COCCN(C)C(=O)c1cn(Cc2cncn2[C@@H](C)c2ccccc2)cc1-c1cccc2ccccc12` [Compound 11], the IC50 on Ras farnesyl transferase [1] was 0.008 µM; on Ras farnesyl transferase [2], 10 to 50 µM; at Ras farnesyl transferase [3], 0.004 µM; on Ras farnesyl transferase [4], 0.025 µM.

On to `C[C@@H](c1ccccc1)n1cncc1Cn1cc(C(=O)N2CCOCC2)c(-c2cccc3ccccc23)c1` [Compound 12, 1-[1-((S)-α-Methylbenzyl)-1H-imidazol-5-ylmethyl]-3-(morpholin-4-yl)carbonyl-4-(naphthalen-1-yl)-1H-pyrrole], for which the IC50 was 0.0066 µM at Ras farnesyl transferase [1], 10 to 50 µM on Ras farnesyl transferase [2], 0.005 µM on Ras farnesyl transferase [3] and 0.025 µM on Ras farnesyl transferase [4].

For `C[C@@H](c1ccccc1)n1cncc1Cn1cc(C(=O)N2CCN(C)CC2)c(-c2cccc3ccccc23)c1` [Compound 13, 1-[1-((S)-α-Methylbenzyl)-1H-imidazol-5-ylmethyl]-3-(4-methylpiperazin-1-yl)carbonyl-4-(naphthalen-1-yl)-1H-pyrrole], the IC50 on Ras farnesyl transferase [1] was 0.005 µM; at Ras farnesyl transferase [2], 10 to 50 µM; at Ras farnesyl transferase [3], 0.00085 µM; at Ras farnesyl transferase [4], 0.0125 µM.

Consider `COCCN(C)C(=O)c1cn(Cc2cncn2CCc2ccccc2)cc1-c1cccc2ccccc12` [Compound 14, 3-[N-(2-Methoxyethyl)-N-methyl]carbamoyl-4-(naphthalen-1-yl)-1-[1-(phenethyl)-1H-imidazol-5-ylmethyl]-1H-pyrrole], for which the IC50 at Ras farnesyl transferase [1] is 0.005 µM; at Ras farnesyl transferase [2], 10 to 50 µM; at Ras farnesyl transferase [3] it was 0.002 µM; on Ras farnesyl transferase [4], 0.0125 µM.

As to `O=C(c1cn(Cc2cncn2CCc2ccccc2)cc1-c1cccc2ccccc12)N1CCOCC1` [Compound 15], the IC50 at Ras farnesyl transferase [1] was 0.01 µM; at Ras farnesyl transferase [2] it was 10 to 50 µM; at Ras farnesyl transferase [3], 0.005 µM; at Ras farnesyl transferase [4], 0.025 µM.

`CN1CCN(C(=O)c2cn(Cc3cncn3CCc3ccccc3)cc2-c2cccc3ccccc23)CC1` [Compound 16, 3-(4-Methylpiperazin-1-yl)carbonyl-4-(naphthalen-1-yl)-1-[1-(phenethyl)-1H-imidazol-5-ylmethyl)-1H-pyrrole]: the IC50 is 0.005 µM on Ras farnesyl transferase [1], 10 to 50 µM at Ras farnesyl transferase [2], 0.0012 µM at Ras farnesyl transferase [3] and 0.0125 µM at Ras farnesyl transferase [4].

As to `COCCN(C)C(=O)c1cn(Cc2cncn2CCc2ccccc2OC)cc1-c1cccc2ccccc12` [Compound 17, 3-[N-(2-Methoxyethyl)-N-methyl]carbamoyl-1-[1-(2-methoxy)phenethyl-1H-imidazol-5-yl]methyl-4-(naphthalen-1-yl)-1H-pyrrole], the IC50 is 0.003 µM at Ras farnesyl transferase [1], 10 to 50 µM on Ras farnesyl transferase [2], 0.002 µM on Ras farnesyl transferase [3] and 0.025 µM at Ras farnesyl transferase [4].

In the case of `COc1ccccc1CCn1cncc1Cn1cc(C(=O)N2CCN(C)CC2)c(-c2cccc3ccccc23)c1` [Compound 18, 1-[1-(2-Methoxy)phenethyl-1H-imidazol-5-yl]methyl-3-[4-methylpiperazin-1-yl]carbonyl-4-(naphthalen-1-yl)-1H-pyrrole], the IC50 was 0.002 µM at Ras farnesyl transferase [1], 10 to 50 µM on Ras farnesyl transferase [2], 0.001 µM on Ras farnesyl transferase [3] and 0.025 µM at Ras farnesyl transferase [4].

Regarding `COCCN(C)C(=O)c1cn(Cc2cncn2CCc2ccc(OC)cc2)cc1-c1cccc2ccccc12` [Compound 19, 3-[N-(2-Methoxyethyl)-N-methyl]carbamoyl-1-[1-(4-methoxy)phenethyl-1H-imidazol-5-yl]methyl-4-(naphthalen-1-yl)-1H-pyrrole], the IC50 at Ras farnesyl transferase [1] was 0.003 µM; on Ras farnesyl transferase [2], 10 to 50 µM; on Ras farnesyl transferase [3], 0.001 µM; at Ras farnesyl transferase [4] it was 0.02 µM.
